Assay results taken from US10669271B2, “Heterocyclic compounds as immunomodulators” (Incyte Corporation, priority 2018, dated 2020).
pEC50, pIC50: −log10 of the molar value.

How the values were obtained:
[1] = molecular target: PD-1/PD-L1 (Homo sapiens (Human), UniProt Q9NZQ7); experiment: Homogeneous Time-Resolved Fluorescence (HTRF) PD-1/PD-L1 binding assay; details: recombinant human PD-1 and PD-L1, 25° C., pH 7.4
Procedure: Example A. Homogeneous Time-Resolved Fluorescence (HTRF) PD-1/PD-L1 Binding Assay
The assays were conducted in a standard black 384-well polystyrene plate with a final volume of 20 μL. Inhibitors were first serially diluted in DMSO and then added to the plate wells before the addition of other reaction components. The final concentration of DMSO in the assay was 1%. The assays were carried out at 25° C. in the PBS buffer (pH 7.4) with 0.05% Tween-20 and 0.1% BSA. Recombinant human PD-L1 protein (19-238) with a His-tag at the C-terminus was purchased from AcroBiosystems (PD1-H5229). Recombinant human PD-1 protein (25-167) with Fc tag at the C-terminus was also purchased from AcroBiosystems (PD1-H5257). PD-L1 and PD-1 proteins were diluted in the assay buffer and 10 μL was added to the plate well. Plates were centrifuged and proteins were preincubated with inhibitors for 40 minutes. The incubation was followed by the addition of 10 μL of HTRF detection buffer supplemented with Europium cryptate-labeled anti-human IgG (PerkinElmer-AD0212) specific for Fc and anti-His antibody conjugated to SureLight®-Allophycocyanin (APC, PerkinElmer-AD0059H). After centrifugation, the plate was incubated at 25° C. for 60 min. before reading on a PHERAstar FS plate reader (665 nm/620 nm ratio). Final concentrations in the assay were—3 nM PD1,10 nM PD-L1, 1 nM europium anti-human IgG and 20 nM anti-His-Allophycocyanin. IC50 determination was performed by fitting the curve of percent control activity versus the log of the inhibitor concentration using the GraphPad Prism 5.0 software.

[2] = test system: U2OS/PD-L1 cells and Jurkat-PD-1-SHP cells; experiment: Src homology region 2 domain-containing phosphatase (SHP) assay; assay type: cell-based; details: Homo sapiens; U2OS/PD-L1 cells with Jurkat-PD-1-SHP cells, 2 hours
Procedure: Example B. Src Homology Region 2 Domain-Containing Phosphatase (SHP) Assay
U2OS/PD-L1 cells (DiscoveRx Corporation) were maintained in McCoy's 5A medium with addition of 10% FBS, 0.25 μg/ml Puromycin. After removing the culture media, the cell medium was replaced with assay medium (RPMI1640 medium with 1% FBS). The U2OS/PD-L1 cells were then added in 384-well black clear bottom assay plate (CELLCOAT® Tissue Culture Plates, Greiner Bio-One) at 5000 cells per well in 20 μL assay medium. Test compounds were prepared by serial dilution in DMSO and 125 nL compound were first transferred to the 384 REMP plate well (Thermofisher) by ECHO liquid handler (Labcyte) followed with addition of 27.5 μL assay medium. 5 μL/well compounds in the assay medium were transferred to the cell plate with 0.05% DMSO in the final assay at 0.5 μM. Jurkat-PD-1-SHP cells (DiscoveRx Corporation) were cultured in RPMI1640 medium supplemented with 10% FBS, 250 μg/ml Hygromycin B, 500 μg/ml G418. After the replacement of culture media with assay medium, 5,000 Jurkat-PD-1-SHP cells in 20 μL were dispensed into each well. The assay plate was incubated at 37° C., 5% CO2 for 2 hours before 2.5 μL PathHunter reagent 1 (DiscoveRx Corporation) were added to each well. The assay plate was shaken for 1 min at 350 rpm in the dark followed with addition of 10 μL PathHunter reagent 2 (DiscoveRx Corporation). Chemiluminescent signal was recorded with TopCount reader (Perkin Elmer) after incubation at room temperature for 1 hour. Wells with DMSO were served as the positive controls and wells containing no cells were used as negative controls. IC50 determination was performed by fitting the curve of percentage of control activity versus the log of the compound concentration using the GraphPad Prism 6.0 software.

[3] = test system: PD-L1 aAPC/CHO-K1 cells and Jurkat-PD-1-NFAT effector cells; experiment: Nuclear factor of activated T-cells (NFAT) assay; assay type: cell-based; details: Cricetulus griseus; PD-L1 aAPC/CHO-K1 cells with Jurkat-PD-1-NFAT effector cells, 24 hours
Procedure: Example C. Nuclear Factor of Activated T-Cells (NFAT) Assay
PD-L1 aAPC/CHO-Klcells (Promega) were maintained in F-12 medium with addition of 10% FBS, 200 μg/ml Hygromycin B, 250 μg/ml Geneticin (G418). Jurkat-PD-1-NFAT effector cells (Promega) were cultured in RPMI 1640 medium supplemented with 10% FBS, 100 μg/ml Hygromycin B, 500 μg/ml G418. The culture media of PD-L1 aAPC/CHO-K1 cells were first replaced with assay medium (RPMI1640 medium with 1% FBS). The PD-L1 aAPC/CHO-K1 cells were then added in a white 384-well white clear bottom assay plate (CELLCOAT® Tissue Culture Plates, Greiner Bio-One) at 8000 per well in 10 μL assay medium. Test compounds were prepared by serial dilution in DMSO and 0.8 μL test compounds in DMSO were first transferred to the 384 REMP plate well (Thermofisher) by PlateMate Plus (Thermofisher) followed with addition of 50 μL plating medium. 5 μL compounds in the assay medium were transferred to the cells with 0.4% DMSO in the final assay at 2 μM. After removing the culture media, 10,000 Jurkat-PD-1-NFAT effector cells in 5 μL assay medium was dispensed into each well. The assay plate was incubated at 37° C., 5% CO2 for 24 hours. After the assay plate was equilibrated to room temp for 15 minutes, 20 µL/well of Bio-Glo™ reagent (Promega) were added. After 8 minutes incubation at room temperature, luminescence was read at with Pherastar microplate reader (BMG Labtech). The fold of induction (FOI) was calculated based on the ratio of luminescence normalized to the DMSO wells within each assay plate. The maximum percentage of induction was reported based on the ratio between the highest FOI of each compound and the maximum FOI of control compound within each assay plate. Wells with DMSO were served as the negative controls and wells containing control compound with the highest FOI were used as positive controls. EC50 determination was performed by fitting the curve of percent control activity versus the log of the compound concentration using the GraphPad Prism 6.0 software.

[4] = molecular target: PD-L1 (Homo sapiens (Human), UniProt Q9NZQ7); experiment: PD-L1 whole blood internalization assay; assay type: cell-based; details: 1 ng/ml human interferon γ, PD-L1 expression on CD14+ cells, read-out: Whole Blood (24 HR) IC50
Procedure: Example D. PD-L1 Whole Blood Internalization Assay
To determine PD-L1 internalization in human whole blood, normal human blood (Biological Specialty Corp, Colmar. Pa.) was incubated in the presence or absence of a concentration range of test compounds and 1 ng/ml human interferon γ (R&D Systems Inc. Minn. […] Blood was then stained with PD-L1 (MIH1, eBioscience; or BD Biosciences San Jose, Calif.), CD14 (Life Technologies, Carlsbad, Calif.) for 30 minutes in the dark at room temperature. Whole Blood/red cells were lysed/fixed (lysis buffer BD Biosciences) for 5 minutes at 37° C. in the dark and then centrifuged at 1600 RPM for 5 minutes. Cells were resuspended in Stain Buffer (BD Bioscience, San Jose, Calif.) and transferred into 96 well round bottom plates (Corning). Cells were gated on CD14+(BD Biosciences) and PD-L1 expression determined by mean fluorescence intensity (MFI) (BD LSRFortessa™ X-20). IC50 determination was performed by fitting the curve of compound percent inhibition versus the log of the compound concentration using the GraphPad Prism 7.0 software.

PD-1/PD-L1, sequence (Q9NZQ7 19-238): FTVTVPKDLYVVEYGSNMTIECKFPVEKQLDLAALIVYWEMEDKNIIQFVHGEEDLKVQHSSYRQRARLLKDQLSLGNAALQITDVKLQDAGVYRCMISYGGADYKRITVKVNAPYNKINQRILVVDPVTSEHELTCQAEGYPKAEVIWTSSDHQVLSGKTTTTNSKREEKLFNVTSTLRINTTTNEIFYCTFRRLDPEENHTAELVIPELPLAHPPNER
PD-L1, sequence (Q9NZQ7 19-290): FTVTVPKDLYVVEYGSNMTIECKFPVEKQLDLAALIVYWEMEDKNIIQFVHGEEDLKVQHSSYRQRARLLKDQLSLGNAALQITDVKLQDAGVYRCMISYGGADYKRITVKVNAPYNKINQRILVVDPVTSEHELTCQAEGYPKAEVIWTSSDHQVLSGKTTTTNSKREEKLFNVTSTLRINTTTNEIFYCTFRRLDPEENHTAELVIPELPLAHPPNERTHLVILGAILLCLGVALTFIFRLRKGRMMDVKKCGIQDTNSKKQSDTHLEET

Structure (SMILES) | pIC50 [1] | pIC50 [2] | pEC50 [3] | pIC50 [4]
Cc1c(Nc2nc(N)nc3cc(CN4CC[C@@H](O)C4)cnc23)cccc1-c1cccc(-c2nc3cc(CN4CCC(C(=O)O)CC4)cc(C#N)c3o2)c1C [Example 29, (R)-1-((2-(3′-(2-amino-7-((3-hydroxypyrrolidin-1-yl)methyl)pyrido[3,2-d]pyrimidin-4-ylamino)-2,2′-dimethylbiphenyl-3-yl)-7-cyanobenzo[d]oxazol-5-yl)methyl)piperidine-4-carboxylic Acid] | ≥ 8.00 | ≥ 8.00 | 7.00 to 8.00 | 7.00 to 8.00
Cc1c(Nc2nc(C(F)F)nc3cc(CN4CC[C@@H](O)C4)cnc23)cccc1-c1cccc(-c2nc3cc(CN4CCC(C(=O)O)CC4)cc(C#N)c3o2)c1C [Example 16, (R)-1-((7-cyano-2-(3′-(2-(difluoromethyl)-7-((3-hydroxypyrrolidin-1-yl)methyl)pyrido[3,2-d]pyrimidin-4-ylamino)-2,2′-dimethylbiphenyl-3-yl)benzo[d]oxazol-5-yl)methyl)piperidine-4-carboxylic Acid] | ≥ 8.00 | ≥ 8.00 | ≥ 8.00 | 7.00 to 8.00
Cc1nc(Nc2cccc(-c3cccc(-c4nc5cc(CN6CC[C@@H](C(=O)O)C6)cc(C#N)c5o4)c3C)c2C)c2ncc(CN3CC[C@@H](O)C3)cc2n1 [Example 6, (R)-1-((7-cyano-2-(3′-(7-(((R)-3-hydroxypyrrolidin-1-yl)methyl)-2-methylpyrido[3,2-d]pyrimidin-4-ylamino)-2,2′-dimethylbiphenyl-3-yl)benzo[d]oxazol-5-yl)methyl)pyrrolidine-3-carboxylic Acid] | ≥ 8.00 | ≥ 8.00 | 7.00 to 8.00 | 7.00 to 8.00
Cc1nc(Nc2cccc(-c3cccc(-c4nc5cc(CN6CC[C@@H](C(=O)O)C6)cc(C#N)c5o4)c3C)c2C)c2ncc(CN[C@@H](C)CO)cc2n1 [Example 9, (R)-1-((7-cyano-2-(3′-(7-(((S)-1-hydroxypropan-2-ylamino)methyl)-2-methylpyrido[3,2-d]pyrimidin-4-ylamino)-2,2′-dimethylbiphenyl-3-yl)benzo[d]oxazol-5-yl)methyl)pyrrolidine-3-carboxylic Acid] | ≥ 8.00 | ≥ 8.00 | 7.00 to 8.00 | –
Cc1nc(Nc2cccc(-c3cccc(-c4nc5cc(CN6CC[C@@H](C(=O)O)C6)cc(C#N)c5o4)c3C)c2C)c2ncc(CNC[C@H](C)O)cc2n1 [Example 10, (R)-1-((7-cyano-2-(3′-(7-(((S)-2-hydroxypropylamino)methyl)-2-methylpyrido[3,2-d]pyrimidin-4-ylamino)-2,2′-dimethylbiphenyl-3-yl)benzo[d]oxazol-5-yl)methyl)pyrrolidine-3-carboxylic Acid] | ≥ 8.00 | ≥ 8.00 | 7.00 to 8.00 | –
Cc1c(Nc2nc(C(F)(F)F)nc3cc(CN4CC[C@@H](O)C4)cnc23)cccc1-c1cccc(-c2nc3cc(CN4CCC(C(=O)O)CC4)cc(C#N)c3o2)c1C [Example 19, (R)-1-((7-cyano-2-(3′-(7-((3-hydroxypyrrolidin-1-yl)methyl)-2-(trifluoromethyl)pyrido[3,2-d]pyrimidin-4-ylamino)-2,2′-dimethylbiphenyl-3-yl)benzo[d]oxazol-5-yl)methyl)piperidine-4-carboxylic Acid] | – | ≥ 8.00 | 7.00 to 8.00 | 7.00 to 8.00
Cc1c(Nc2nc(C(F)(F)F)nc3cc(CN4CC[C@@H](O)C4)cnc23)cccc1-c1cccc(-c2nc3cc(CN4CC[C@@H](C(=O)O)C4)cc(C#N)c3o2)c1C [Example 20, (R)-1-((7-cyano-2-(3′-(7-(((R)-3-hydroxypyrrolidin-1-yl)methyl)-2-(trifluoromethyl)pyrido[3,2-d]pyrimidin-4-ylamino)-2,2′-dimethylbiphenyl-3-yl)benzo[d]oxazol-5-yl)methyl)pyrrolidine-3-carboxylic Acid] | – | ≥ 8.00 | 7.00 to 8.00 | 7.00 to 8.00
Cc1nc(Nc2cccc(-c3cccc(-c4nc5cc(CN6CC[C@@](C)(C(=O)O)C6)cc(C#N)c5o4)c3C)c2C)c2ncc(CNC[C@H](C)O)cc2n1 [Example 15, (R)-1-((7-cyano-2-(3′-(7-(((S)-2-hydroxypropylamino)methyl)-2-methylpyrido[3,2-d]pyrimidin-4-ylamino)-2,2′-dimethylbiphenyl-3-yl)benzo[d]oxazol-5-yl)methyl)-3-methylpyrrolidine-3-carboxylic Acid] | ≥ 8.00 | ≥ 8.00 | 7.00 to 8.00 | –
Cc1cc2cc(CN3CC[C@@H](O)C3)cnc2c(Nc2cccc(-c3cccc(-c4nc5cc(CN6CC[C@@H](C(=O)O)C6)cc(C#N)c5o4)c3C)c2C)n1 [Example 33, (R)-1-((7-cyano-2-(3′-(3-(((R)-3-hydroxypyrrolidin-1-yl)methyl)-6-methyl-1,7-naphthyridin-8-ylamino)-2,2′-dimethylbiphenyl-3-yl)benzo[d]oxazol-5-yl)methyl)pyrrolidine-3-carboxylic Acid] | – | ≥ 8.00 | ≥ 8.00 | 7.00 to 8.00
